Target: Protein smoothened (Homo sapiens, UniProt Q99835)
Experiment: Inhibition of Smo receptor (unknown origin) expressed in NIH3T3 cells assessed as inhibition of Smo agonist SAG-induced GRE activation after 30 hrs by luciferase reporter gene assay
Type: cell-based

Protein smoothened, sequence (Q99835 whole entry): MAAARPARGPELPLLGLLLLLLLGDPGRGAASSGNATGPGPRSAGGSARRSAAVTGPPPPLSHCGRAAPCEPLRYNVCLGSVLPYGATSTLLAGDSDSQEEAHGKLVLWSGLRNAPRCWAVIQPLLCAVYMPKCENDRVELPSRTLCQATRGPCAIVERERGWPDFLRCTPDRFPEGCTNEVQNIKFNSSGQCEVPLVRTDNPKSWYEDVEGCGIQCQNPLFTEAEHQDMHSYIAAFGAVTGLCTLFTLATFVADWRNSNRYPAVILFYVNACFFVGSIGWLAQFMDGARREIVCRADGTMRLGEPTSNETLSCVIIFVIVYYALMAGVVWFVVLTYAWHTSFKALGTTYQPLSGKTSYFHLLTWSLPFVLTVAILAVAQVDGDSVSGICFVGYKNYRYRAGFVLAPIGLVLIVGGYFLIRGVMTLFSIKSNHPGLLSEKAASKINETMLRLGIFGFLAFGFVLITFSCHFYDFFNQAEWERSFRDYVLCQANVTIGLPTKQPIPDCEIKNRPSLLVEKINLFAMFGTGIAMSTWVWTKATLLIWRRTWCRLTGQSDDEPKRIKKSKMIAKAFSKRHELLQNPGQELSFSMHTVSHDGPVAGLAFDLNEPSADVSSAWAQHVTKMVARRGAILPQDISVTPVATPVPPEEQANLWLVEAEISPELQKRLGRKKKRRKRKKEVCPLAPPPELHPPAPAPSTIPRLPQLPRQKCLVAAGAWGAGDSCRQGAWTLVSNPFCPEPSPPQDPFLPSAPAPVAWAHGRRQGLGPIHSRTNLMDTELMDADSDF

IC50	SMILES
380 nM	Cc1cnc(-c2cc(N3CCn4cc(C(=O)OC(C)C)nc4C3)ncc2Cl)c(C)c1
4100 nM	Cc1cnc(-c2cc(N3CCn4cc(CO)nc4C3)ncc2Cl)c(C)c1
790 nM	Cc1cnc(-c2cc(N3CCn4cc(C(=O)N5CCOCC5)nc4C3)ncc2Cl)c(C)c1
440 nM	Cc1cnc(-c2cc(N3CCn4cc(C(=O)Nc5ccc(F)cc5)nc4C3)ncc2Cl)c(C)c1
2700 nM	CNC(=O)c1cn2c(n1)CN(c1cc(-c3ncc(C)cc3C)c(Cl)cn1)CC2
740 nM	Cc1cnc(-c2cc(N3CCn4cc(C(=O)OC5CCCC5)nc4C3)ncc2Cl)c(C)c1
270 nM	Cc1cnc(-c2cc(N3CCn4cc(C(=O)Nc5ccccn5)nc4C3)ncc2Cl)c(C)c1
1500 nM	Cc1cnc(-c2cc(N3CCn4cc(C(=O)N5CC(C)NC(C)C5)nc4C3)ncc2Cl)c(C)c1 (centres undefined)
350 nM	Cc1cnc(-c2cc(N3CCn4cc(C(=O)Nc5ccccc5F)nc4C3)ncc2Cl)c(C)c1
1300 nM	CCNC(=O)c1cn2c(n1)CN(c1cc(-c3ncc(C)cc3C)c(Cl)cn1)CC2
4100 nM	Cc1cnc(-c2cc(N3CCn4cc(C(=O)N(C)CCO)nc4C3)ncc2Cl)c(C)c1
650 nM	COCC(=O)Nc1cn2c(n1)CN(c1cc(-c3ncc(C)cc3C)c(Cl)cn1)CC2
> 10000 nM	Cc1cnc(-c2cc(N3CCn4cc(C(=O)O)nc4C3)ncc2Cl)c(C)c1
910 nM	Cc1cnc(-c2cc(N3CCn4cc(CN5CCOCC5)nc4C3)ncc2Cl)c(C)c1
200 nM	Cc1cnc(-c2cc(N3CCn4cc(C(=O)Nc5cccnc5)nc4C3)ncc2Cl)c(C)c1
1800 nM	Cc1cnc(-c2cc(N3CCn4cc(NC(=O)C(F)(F)F)nc4C3)ncc2Cl)c(C)c1
87 nM	Cc1cnc(-c2cc(N3CCn4cc(C(=O)Nc5cccc(F)c5)nc4C3)ncc2Cl)c(C)c1
890 nM	CCC(=O)Nc1cn2c(n1)CN(c1cc(-c3ncc(C)cc3C)c(Cl)cn1)CC2
690 nM	CCOC(=O)c1cn2c(n1)CN(c1cc(-c3ncc(C)cc3C)c(Cl)cn1)CC2
270 nM	Cc1cnc(-c2cc(N3CCn4cc(C(=O)OCC5CC5)nc4C3)ncc2Cl)c(C)c1
420 nM	Cc1cnc(-c2cc(N3CCn4cc(C(=O)Nc5ccc(F)c(F)c5)nc4C3)ncc2Cl)c(C)c1
> 10000 nM	Cc1cnc(-c2cc(N3CCn4cc(C(=O)N5CCC(O)C5)nc4C3)ncc2Cl)c(C)c1 (centres undefined)
550 nM	COC[C@H]1CCCN1C(=O)c1cn2c(n1)CN(c1cc(-c3ncc(C)cc3C)c(Cl)cn1)CC2
270 nM	Cc1cnc(-c2cc(N3CCn4cc(C(=O)N5CCCC5)nc4C3)ncc2Cl)c(C)c1
1200 nM	Cc1cnc(-c2cc(N3CCn4cc(C(=O)N5CCC(O)CC5)nc4C3)ncc2Cl)c(C)c1
520 nM	Cc1cnc(-c2cc(N3CCn4cc(C(=O)NCC5CC5)nc4C3)ncc2Cl)c(C)c1
> 10000 nM	Cc1cnc(-c2cc(N3CCn4cc(C(=O)N5CC(O)C5)nc4C3)ncc2Cl)c(C)c1
300 nM	Cc1cnc(-c2cc(N3CCn4cc(C(=O)Nc5ccccc5)nc4C3)ncc2Cl)c(C)c1
960 nM	Cc1cnc(-c2cc(N3CCn4cc(C(=O)Oc5ccccc5)nc4C3)ncc2Cl)c(C)c1
